Among the data in PubChem BioAssay (NCI) are TGI values, retold here.

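Cultured in 96-well plates, cells were exposed to test compound for 48 hours across five concentrations. TGI: total growth inhibition.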

Among the test systems are 786-0 renal; A549 NSCLC; COLO 205 colon; EKVX NSCLC; HOP-62 NSCLC; HOP-92 NSCLC; KM12 colon; NCI-H522 lung; OVCAR-5 ovarian; OVCAR-8 ovarian; PC-3 prostate; RPMI-8226 leukemia; SK-MEL-5 melanoma; SN12C renal; UO-31 renal; A498 renal; HL-60(TB) leukemia; RXF 393 renal.
What all share (assay): growth of human tumour cells (NCI), 48 h

Turning to `COc1ccc2c(c1)-c1[nH]c3ccc(OC)cc3c1CC2`, the TGI in the assay with 786-0 renal came to 34 µM; with A549 NSCLC, 30.2 µM; in the assay with COLO 205 colon, 37.4 µM; in the assay with EKVX NSCLC it was 20.8 µM; in the assay on HOP-62 NSCLC, 30.9 µM; with HOP-92 NSCLC, 36.2 µM. Besides, the TGI came out at 19 µM with KM12 colon; 17.6 µM with NCI-H522 lung; 28.6 µM with OVCAR-5 ovarian; 27.3 µM in the assay with OVCAR-8 ovarian; 24.1 µM in the assay with PC-3 prostate; 48.2 µM with RPMI-8226 leukemia. For the same compound, the TGI is 30.9 µM with SK-MEL-5 melanoma, 29.3 µM with SN12C renal and 31.4 µM in the assay with UO-31 renal.
`COC(=O)NN=C1C(C)(C)C(=O)C1(C)C`: the TGI in the assay with 786-0 renal, in the assay with A498 renal, in the assay on A549 NSCLC, with COLO 205 colon, in the assay on EKVX NSCLC and in the assay with HL-60(TB) leukemia was over 100 µM each time. Also, the TGI in the assay on HOP-62 NSCLC, in the assay on HOP-92 NSCLC, in the assay with KM12 colon, in the assay with NCI-H522 lung, in the assay on OVCAR-5 ovarian and in the assay on OVCAR-8 ovarian was over 100 µM throughout. Moreover, the TGI in the assay with RPMI-8226 leukemia, in the assay on RXF 393 renal, in the assay with SK-MEL-5 melanoma and in the assay on UO-31 renal was over 100 µM in each case.
On to `Nc1ccc(CCSSCCc2ccc(N)cc2)cc1`, for which the TGI with 786-0 renal was 36.6 µM; in the assay with A498 renal it was over 94.7 µM; with A549 NSCLC, over 100 µM; in the assay with COLO 205 colon, over 100 µM; in the assay on EKVX NSCLC, over 100 µM; with HOP-62 NSCLC it was over 100 µM. Besides, the TGI is over 100 µM in the assay with HOP-92 NSCLC; over 100 µM with KM12 colon; 34.9 µM in the assay on NCI-H522 lung; 83.5 µM with OVCAR-5 ovarian; over 88.2 µM in the assay on OVCAR-8 ovarian; over 78.9 µM with PC-3 prostate. For the same compound, the TGI in the assay with RPMI-8226 leukemia was over 81.8 µM; in the assay with RXF 393 renal it was 44.6 µM; in the assay with SK-MEL-5 melanoma, over 52.7 µM; in the assay with SN12C renal it was 60.1 µM; with UO-31 renal, over 82.8 µM.
For the compound `N#CCCN(c1ccc(C=Nc2ccccc2Cl)cc1)S(=O)(=O)c1ccccc1`, the TGI with 786-0 renal, with A498 renal, in the assay on A549 NSCLC, in the assay on COLO 205 colon, in the assay with EKVX NSCLC and in the assay on HL-60(TB) leukemia was over 100 µM each time. For the same compound, the TGI in the assay on HOP-62 NSCLC, with HOP-92 NSCLC, with KM12 colon, with NCI-H522 lung, in the assay on OVCAR-5 ovarian and in the assay with OVCAR-8 ovarian was over 100 µM throughout. Further, the TGI in the assay on RPMI-8226 leukemia, with RXF 393 renal, with SK-MEL-5 melanoma, in the assay with SN12C renal and in the assay on UO-31 renal was over 100 µM each time.
Consider `Cc1ccc(C2SC(N)=Nc3c2c(C)nn3C(=O)c2ccccc2O)cc1` (stereo not given), for which the TGI with 786-0 renal, with A498 renal, with A549 NSCLC, in the assay with COLO 205 colon, in the assay on EKVX NSCLC and in the assay on HOP-62 NSCLC was over 10 µM each time. Besides, the TGI in the assay on HOP-92 NSCLC is 5.02 µM; in the assay on KM12 colon, over 10 µM; in the assay on OVCAR-5 ovarian it was over 10 µM; in the assay on OVCAR-8 ovarian, over 10 µM; with PC-3 prostate, over 10 µM; in the assay on RPMI-8226 leukemia, over 10 µM. Further, the TGI with RXF 393 renal, in the assay with SK-MEL-5 melanoma, in the assay with SN12C renal and in the assay with UO-31 renal was over 10 µM in each case.
Consider `COC(=O)[C@@H](NC(=O)N(CCC#N)CCCN(C(=O)N[C@H](Cc1ccccc1)C(=O)OC)c1ccccc1)C(C)C`, for which the TGI in the assay with 786-0 renal, in the assay with A498 renal, with A549 NSCLC, with COLO 205 colon, in the assay on EKVX NSCLC and in the assay on HOP-62 NSCLC was over 100 µM throughout. Besides, the TGI in the assay on HOP-92 NSCLC was 80 µM; in the assay on KM12 colon, over 100 µM; in the assay on NCI-H522 lung, over 100 µM; in the assay on OVCAR-5 ovarian it was over 100 µM; in the assay with OVCAR-8 ovarian it was over 100 µM; in the assay on PC-3 prostate, over 100 µM. Moreover, the TGI in the assay with RPMI-8226 leukemia, in the assay on RXF 393 renal, in the assay on SK-MEL-5 melanoma, with SN12C renal and in the assay with UO-31 renal was over 100 µM each time.
Consider `C=CCc1ccccc1CC1(OCC)OC(=O)c2ccccc21` (stereo not given), for which the TGI with 786-0 renal, with A498 renal, in the assay with A549 NSCLC, in the assay with COLO 205 colon, in the assay with EKVX NSCLC and in the assay with HOP-62 NSCLC was over 100 µM in each case. The TGI in the assay with HOP-92 NSCLC, with NCI-H522 lung, in the assay on OVCAR-5 ovarian, in the assay on OVCAR-8 ovarian, in the assay on PC-3 prostate and with RPMI-8226 leukemia was over 100 µM throughout. The TGI with RXF 393 renal, in the assay with SK-MEL-5 melanoma, in the assay with SN12C renal and with UO-31 renal was over 100 µM each time.
For `COc1ccc(/C=C2\N=C(SC)N(CN3CCCCC3)C2=O)cc1`, the TGI in the assay with 786-0 renal, in the assay on A498 renal, in the assay with A549 NSCLC, in the assay with COLO 205 colon, in the assay on EKVX NSCLC and in the assay on HOP-62 NSCLC was over 100 µM throughout. Further, the TGI with HOP-92 NSCLC, in the assay on KM12 colon, with NCI-H522 lung, in the assay with OVCAR-5 ovarian, in the assay with OVCAR-8 ovarian and with PC-3 prostate was over 100 µM in each case. For the same compound, the TGI in the assay on RPMI-8226 leukemia, in the assay with SK-MEL-5 melanoma, in the assay on SN12C renal and with UO-31 renal was over 100 µM each time.
